Experimental data from US7208506B2, “Heteroarylethenyl derivatives, their manufacture and use as pharmaceutical agents” (Hoffmann-La Roche Inc., priority 2005, dated 2007).
pIC50: −log10 of the molar value. Counter-ions that a name gives are not always drawn.

These compounds were tested on HCT 116 cells (assay: CellTiter-Glo Luminescent Cell Viability Assay in HCT 116 cells). Settings: Homo sapiens, HCT-116, 120 h, HCT 116 human colon carcinoma cell viability, 120 h (5 days) incubation, 10 concentrations 30 μM to 0.0015 μM, triplicate.
Type: cell-based
Excerpt: CellTiter-Glo™ Assay in HCT 116 Cells
The CellTiter-Glo™ Luminescent Cell Viability Assay (Promega) is a homogeneous method of determining the number of viable cells in culture based on quantitation of the ATP present, which signals the presence of metabolically active cells.
HCT 116 cells (human colon carcinoma, ATCC-No. CCl1-247) were cultivated in RPMI 1640 medium with GlutaMAX™ I (Invitrogen, Cat-No. 61870-010), 2.5% Fetal Calf Serum (FCS, Sigma Cat-No. F4135 (FBS)); 100 Units/ml penicillin/100 μg/ml streptomycin (=Pen/Strep from Invitrogen Cat. No. 15140). For the assay the cells were seeded in 384 well plates, 1000 cells per well, in the same medium. The next day the test compounds were added in various concentrations ranging from 30 μM to 0.0015 μM (10 concentrations, 1:3 diluted). After 5 days the CellTiter-Glo™ assay was done according to the instructions of the manufacturer (CellTiter-Glo™ Luminescent Cell Viability Assay, from Promega). In brief: the cell-plate was equilibrated to room temperature for approximately 30 minutes and than the CellTiter-Glo™ reagent was added. The contents were carefully mixed for 15 minutes to induce cell lysis. After 45 minutes the luminescent signal was measured in Victor 2, (scanning multiwell spectrophotometer, Wallac).
Medium: RPMI 1640 with GlutaMAX™ I (Invitrogen, Cat-Nr. 61870), 5% FCS (Sigma Cat.-No. F4135), Pen/Strep (Invitrogen, Cat No. 15140).
HCT116 (ATCC-No. CCl-247): 1000 cells in 60 μl per well of 384 well plate (Greiner 781098, μClear-plate white)
After seeding incubate plates 24 h at 37° C., 5% CO2
2nd. Day: Induction (Treatment with Compounds, 10 Concentrations):
In order to achieve a final concentration of 30 μM as highest concentration 3,5 μl of 10 mM compound stock solution were added directly to 163 μl media. Then step e) of the dilution procedure described below, was followed.
In order to achieve the second highest to the lowest concentrations, a serial dilution with dilution steps of 1:3 was followed according to the procedure (a–e) as described here below: • a) for the second highest concentration add 10 μl of 10 mM stock solution of compound to 20 μl dimethylsulfoxide (DMSO) • b) dilute 8×1:3 (always 10 μl to 20 μl DMSO) in this DMSO dilution row (results in 9 wells with concentrations from 3333.3 μM to 0.51 μM) • c) dilute each concentration 1: 47.6 (3.5 μl compound dilution to 163 μl media) • e) add 10 μl of every concentration to 60 μl media in the cell plate resulting in final concentration of DMSO : 0.3% in every well and resulting in 10 final concentration of compounds ranging from 30 μM to 0.0015 μM. • Each compound is tested in triplicate. • Incubate 120 h (5 days) at 37° C., 5% CO2
Analysis: • Add 30 μl CellTiter-Glo™ Reagent per well, • shake 15 minutes at room temperature • incubate further 45 minutes at room temperature without shaking
Measurement: • Victor 2 scanning multiwell spectrophotometer (Wallac), Luminescence mode (0.5 sec/read, 477 nm) • Determine IC50 using a non-linear curve fit (XLfit software (ID Business Solution Ltd., Guilford, Surrey, UK))

Row | Compound | pIC50
1 | COc1cc(Cl)ccc1C(=O)NS(=O)(=O)/C=C/c1cccs1 [Example 3-1, (E)-2-Thiophen-2-yl-ethenesulfonic acid 4-chloro-2-methoxy-benzoylamide; sodium salt] | 4.82 to 6.30
2 | O=C(NS(=O)(=O)/C=C/c1cccnc1)c1ccc(Cl)cc1Cl [Example 2-1, (E)-2-Pyridin-3-yl-ethenesulfonic acid 2,4-dichloro-benzoylamide; sodium salt] | 5.47
3 | O=C(NS(=O)(=O)/C=C/c1csc2ccccc12)c1ccc(F)cc1Cl [Example 2-26, (E)-2-Benzo[b]thiophen-3-yl-ethenesulfonic acid 2-chloro-4-fluoro-benzoylamide; sodium salt] | 4.82 to 6.30
4 | Cc1ccc(/C=C/S(=O)(=O)NC(=O)c2ccc(Cl)cc2Cl)s1 [Example 1-8, (E)-2-(5-Methyl-thiophen-2-yl)-ethenesulfonic acid 2,4-dichloro-benzoylamide] | 4.82 to 6.30
5 | COc1cc(Cl)ccc1C(=O)NS(=O)(=O)/C=C/c1cccnc1 [Example 4-1, (E)-2-Pyridin-3-yl-ethenesulfonic acid 4-chloro-2-methoxy-benzoylamide; sodium salt] | 4.82 to 6.30
6 | O=C(NS(=O)(=O)/C=C/c1sccc1Br)c1ccc(Cl)cc1Cl [Example 2-24, (E)-2-(3-Bromo-thiophen-2-yl)-ethenesulfonic acid 2,4-dichloro-benzoylamide; sodium salt] | 4.82 to 6.30
7 | O=C(NS(=O)(=O)/C=C/c1ccsc1)c1ccc(F)cc1Br [Example 3-9, (E)-2-Thiophen-3-yl-ethenesulfonic acid 2-bromo-4-fluoro-benzoylamide; sodium salt] | 4.82 to 6.30
8 | O=C(NS(=O)(=O)/C=C/c1ccccn1)c1ccc(Br)cc1Cl [Example 4-7, (E)-2-Pyridin-2-yl-ethenesulfonic acid 4-bromo-2-chloro-benzoylamide; sodium salt] | 4.82 to 6.30
9 | O=C(NS(=O)(=O)/C=C/c1cncnc1)c1ccc(Cl)cc1Cl [Example 2-18, (E)-2-Pyrimidin-5-yl-ethenesulfonic acid 2,4-dichloro-benzoylamide; sodium salt] | 4.82 to 6.30
10 | O=C(NS(=O)(=O)/C=C/c1csc2ccccc12)c1ccc(F)cc1C(F)(F)F [Example 2-28, (E)-2-Benzo[b]thiophen-3-yl-ethenesulfonic acid 4-fluoro-2-trifluoromethyl-benzoylamide; sodium salt] | 4.82 to 6.30
11 | Cc1ccsc1/C=C/S(=O)(=O)NC(=O)c1ccc(Cl)cc1Cl [Example 1-9, (E)-2-(3-Methyl-thiophen-2-yl)-ethenesulfonic acid 2,4-dichloro-benzoylamide] | 4.82 to 6.30
12 | O=C(NS(=O)(=O)/C=C/c1ccccn1)c1ccc(F)cc1Br [Example 4-6, (E)-2-Pyridin-2-yl-ethenesulfonic acid 2-bromo-4-fluoro-benzoylamide; sodium salt] | 4.82 to 6.30
13 | Cc1ccc(C(=O)NS(=O)(=O)/C=C/c2ccsc2)c(Br)c1 [Example 3-7, (E)-2-Thiophen-3-yl-ethenesulfonic acid 2-bromo-4-methyl-benzoylamide; sodium salt] | 4.82 to 6.30
14 | Cc1ccc(C(=O)NS(=O)(=O)/C=C/c2cccnc2)c(C)c1 [Example 4-16, (E)-2-Pyridin-3-yl-ethenesulfonic acid 2,4-dimethyl-benzoylamide; sodium salt] | 4.82 to 6.30
15 | Cc1ccc(C(=O)NS(=O)(=O)/C=C/c2ccsc2)c(C)c1 [Example 3-14, (E)-2-Thiophen-3-yl-ethenesulfonic acid 2,4-dimethyl-benzoylamide; sodium salt] | 4.82 to 6.30
16 | O=C(NS(=O)(=O)/C=C/c1csc2ccccc12)c1ccc(F)cc1Br [Example 4-19, (E)-2-Benzo[b]thiophen-3-yl-ethenesulfonic acid 2-bromo-4-fluoro-benzoylamide; sodium salt] | 4.82 to 6.30
17 | O=C(NS(=O)(=O)/C=C/c1ccsc1)c1ccc(C(F)(F)F)cc1C(F)(F)F [Example 1-6, (E)-2-Thiophen-3-yl-ethenesulfonic acid 2,4-bis-trifluoromethyl-benzoylamide; sodium salt] | 4.82 to 6.30
18 | Cc1csc(/C=C/S(=O)(=O)NC(=O)c2ccc(Cl)cc2Cl)c1 [Example 1-10, (E)-2-(4-Methyl-thiophen-2-yl)-ethenesulfonic acid 2,4-dichloro-benzoylamide] | 4.82 to 6.30
19 | Cc1cc(Br)ccc1C(=O)NS(=O)(=O)/C=C/c1ccsc1 [Example 3-5, (E)-2-Thiophen-3-yl-ethenesulfonic acid 4-bromo-2-methyl-benzoylamide; sodium salt] | 4.82 to 6.30
20 | O=C(NS(=O)(=O)/C=C/c1ccsc1)c1ccc(F)cc1Cl [Example 1-3, (E)-2-Thiophen-3-yl-ethenesulfonic acid 2-chloro-4-fluoro-benzoylamide; sodium salt] | 4.82 to 6.30
21 | COc1ccc(/C=C/S(=O)(=O)NC(=O)c2ccc(Cl)cc2Cl)cn1 [Example 2-4, (E)-2-(6-Methoxy-pyridin-3-yl)-ethenesulfonic acid 2,4-dichloro-benzoylamide; sodium salt] | 5.30
22 | Cc1noc(C)c1/C=C/S(=O)(=O)NC(=O)c1ccc(Cl)cc1Cl [Example 1-11, (E)-2-(3,5-Dimethyl-isoxazol-4-yl)-ethenesulfonic acid 2,4-dichloro-benzoylamide; sodium salt] | 4.82 to 6.30
23 | Cc1ccc(C(=O)NS(=O)(=O)/C=C/c2ccncc2)c(C)c1 [Example 4-17, (E)-2-Pyridin-4-yl-ethenesulfonic acid 2,4-dimethyl-benzoylamide; sodium salt] | 4.82 to 6.30
24 | O=C(NS(=O)(=O)/C=C/c1cccnc1)c1ccc(F)cc1C(F)(F)F [Example 2-9, (E)-2-Pyridin-3-yl-ethenesulfonic acid 4-fluoro-2-trifluoromethyl-benzoylamide; sodium salt] | 4.82 to 6.30
25 | O=C(NS(=O)(=O)/C=C/c1cccnc1)c1ccc(C(F)(F)F)cc1C(F)(F)F [Example 2-14, (E)-2-Pyridin-3-yl-ethenesulfonic acid 2,4-bis-trifluoromethyl-benzoylamide; sodium salt] | 4.82 to 6.30
26 | COc1ccc(/C=C/S(=O)(=O)NC(=O)c2ccc(Cl)cc2C)cn1 [Example 4-12, (E)-2-(6-Methoxy-pyridin-3-yl)-ethenesulfonic acid 4-chloro-2-methyl-benzoylamide; sodium salt] | 4.82 to 6.30
27 | O=C(NS(=O)(=O)/C=C/c1cccnc1)c1ccc(Br)cc1Cl [Example 4-11, (E)-2-Pyridin-3-yl-ethenesulfonic acid 4-bromo-2-chloro-benzoylamide; sodium salt] | 4.82 to 6.30
28 | COc1ccc(/C=C/S(=O)(=O)NC(=O)c2ccc(F)cc2Cl)cn1 [Example 2-10, (E)-2-(6-Methoxy-pyridin-3-yl)-ethenesulfonic acid 2-chloro-4-fluoro-benzoylamide; sodium salt] | 4.82 to 6.30
29 | O=C(NS(=O)(=O)/C=C/c1ccccn1)c1ccc(Cl)cc1Cl [Example 2-2, (E)-2-Pyridin-2-yl-ethenesulfonic acid 2,4-dichloro-benzoylamide; sodium salt] | 4.82 to 6.30
30 | Cc1ccc(C(=O)NS(=O)(=O)/C=C/c2cccs2)c(C)c1 [Example 3-13, (E)-2-Thiophen-2-yl-ethenesulfonic acid 2,4-dimethyl-benzoylamide; sodium salt] | 4.82 to 6.30
